# Experimental data reported in patent US6057419A, “Cascade polymer complexes, process for producing the same and pharmaceuticals containing the same” (Schering Aktiengesellschaft, priority 1995, dated 2000).
# Experiments:
# [1] = in vivo; cited from earlier work
# [2] = cited from earlier work
# [3] = In vivo comparison with an extracellular contrast medium: blood concentrations and pharmacokinetics in rats (ICP-AES, Topfit program); details: rats (n=3), i.v.
# Method: The suitability of the compound described in Example 1l as a blood-pool agent is shown in the following test.
# As test animals, three male (Schering-SPF) rats that are 200-250 g in weight are used. 0.2 ml (respectively 25 mmol/L) of the following contrast medium solution per animal is administered intravenously: mixture of 1 part each of the compound of 1l, named compound 1 below, and the dysprosium complex of 3,6,9-triaza-3,6,9-tris(carboxymethyl)-undecanedioicacid (Dy-DTPA), named compound 2 below. Blood samples are taken with a catheter in the common carotid artery at the following times: 1, 3, 5, 10, 15, 20, 30, 45, 60, 90, 120 minutes p.i. In the blood samples obtained, the concentrations of gadolinium (Gd) and dysprosium (Dy) are measured with the aid of atomic emission spectrometry (ICP-AES) in each case in a parallel manner. The portion of the injected contrast medium of compound 1 (Gd) and compound 2 (Dy, comparison substance), remaining in the blood space, can be compared in the same animals by the different marking. The a- and b-half-lives, the volume of distribution as well as the total clearance can be calculated from the blood concentrations with the aid of special software (Topfit program).
# Measured blood concentrations of Gd (compound 1) and Dy (compound 2) in rats (n=3)
# [4] = excretion tests in rats; cited from earlier work
molecule,measurement,setting,value
CNC[C@H](O)[C@@H](O)[C@H](O)[C@H](O)CO.CNC[C@H](O)[C@@H](O)[C@H](O)[C@H](O)CO.O=C([O-])CN(CCN(CC(=O)[O-])CC(=O)O)CCN(CC(=O)[O-])CC(=O)O.[Gd+3] [Magnevist],dispersion space (entire extracellular space: intravascular space and interstitium),[1],about 20 % of the volume of the body
CNC(=O)CN(CCN(CCN(CC(=O)[O-])CC(=O)NC)CC(=O)[O-])CC(=O)[O-].[Gd+3] [Omniscan],dispersion space (entire extracellular space: intravascular space and interstitium),[1],about 20 % of the volume of the body
CC(O)CN1CCN(CC(=O)[O-])CCN(CC(=O)[O-])CCN(CC(=O)[O-])CC1.[Gd+3] (stereo not shown) [Pro Hance],dispersion space (entire extracellular space: intravascular space and interstitium),[1],about 20 % of the volume of the body
COCC(=O)Nc1c(I)c(C(=O)NCC(O)CO)c(I)c(C(=O)N(C)CC(O)CO)c1I (stereo not shown) [Ultravist],dispersion space (entire extracellular space: intravascular space and interstitium),[1],about 20 % of the volume of the body
albumin-GdDTPA,concentration in the liver tissue,[2]; 24 h after intravenous injection in rats,~30 % of the dose
same,dose eliminated,"[2]; in 24 hours, rats, i.v.",20 % of the dose
"dysprosium complex of 3,6,9-triaza-3,6,9-tris(carboxymethyl)-undecanedioicacid [Compound 2, reference compound]",Vd ss (volume of distribution),[3],0.41 ± 0.04 L/kg
same,α-t1/2,[3]; blood,1.5 ± 0.5 min
same,β-t1/2,[3]; blood,19.2 ± 2.5 min
polylysine-GdDTPA,excretion (in words),[4],excreted unchanged by glomerular filtration through the kidneys
